Columns and labels:
pancreatic acinar cells [1] = test: Effect of growth factors on insulin-positive cell induction in main culture of pancreatic acinar cells; type: cell-based, mouse; details: day 7 of culture, EGF 20 ng/ml, HGF, FGF7 and FGF10 10 ng/ml, GLP-1 30 ng/ml; for proportion of insulin-positive cells: rank among growth factors (FIG. 8B)
Description: Eight-week old male mice (C57B1/6Cr Slc)(Japan SLC, Inc.: Hamamatsu, Japan) were anesthetized with 50 mg/kg of Nembtal (Dainippon Pharma Co., Ltd.: Osaka, Japan) and subjected to laparotomy. The choledoch duct was ligated near the position where it opens to the duodenum. Using a 27G winged needle (Terumo Corporation: Tokyo, Japan), 2-3 ml of Hank's buffer containing 0.05% collagenase P (Roche: Basel, Switzerland) and 10% fetal bovine serum was infused from the liver side. The pancreas, now swollen, was extracted and digested in 5 ml of Hank's buffer per pancreas for 18 minutes at 37° C. The digested pancreas then was made to pass through a 14G indwelling needle in both directions twice to disperse the pancreatic cells, which washed well with Hank's buffer containing 0.1% bovine serum albumin (Sigma: Saint Louis, Mo., USA). The pancreatic cells thus obtained were suspended in a mixed solution (solution A) consisting of 8.3% Ficoll 400 (Amersham Bioscience: Uppsala, Sweden) and 16.7% Conray 400 (Daiichi Pharmaceutical, Tokyo, Japan), and after a 87.5%-diluted solution of solution A and then a 50%-diluted solution of solution A were placed on it in the order, centrifuged (2,000 rpm, 10 min). Pancreatic acinar cells condensed in the spun down, lowest fraction were collected, and to them was added a sterilized 0.1 mg/ml solution of dithizone (1,5-diphenylthiocarbazone) (Nacalai Tesque, Inc.: Kyoto, Japan) and stained for 15 minutes at 37° C. in order to remove contaminating mature B-cells. Mature B-cells are stained red with dithizone, which is a chelating agent for zinc, for high concentration of insulin occurs in mature B-cells in the form of a hexamer via zinc (Latif et al., Transplantation, 45:827(1988)). By removing red-stained mature B-cells under a stereomicroscope, a fraction containing highly concentrated pancreatic acinar cells were obtained. […]

pancreatic acinar cells [2] = test: Correlation between EGF concentration and induction of colonies containing insulin-positive cells; type: cell-based, mouse; details: 0.5% fetal bovine serum (FIG. 9)
Description: The recovered cells were suspended in a nutrition medium (e.g., RPMI-1640) containing 0.5% fetal bovine serum (Sigma) and 20 ng/ml epidermal growth factor (EGF) (R&D Systems: Minneapolis, Minn., USA), and inoculated in cell culture dishes which were less adhesive for cells (Nalge Nunc: Rochester, N.Y., USA) and cultured in an incubator set at 37° C., 5% CO2. The pancreatic acinar cells, at early stages of culture, formed cell clusters having smooth boundaries consisting of congregated cells and, and kept themselves floating (FIG. 1A), and, at around day 3, adhere to the bottom of the dish and started to extend on it. After about 7 days, they formed relatively small cell aggregates (colonies) consisting of several dozen to several hundred cells (FIG. 1B). The cell density upon inoculation, which ranged from 1- to 10-fold dilution of that in pre-culture, had no influence on the form of the colonies observed.
In accordance with the method described in Example 1, except that the concentration of fetal bovine serum was fixed at 0.5% and EGF was used as the growth factor at a concentration of 0, 2, 20 or 200 ng/ml, main culture of pancreatic acinar cells were performed to assess the effect of EGF on induction of aimed cells (cells forming colonies containing insulin-positive cells as shown in FIG. 1B).

Substance	total cell count (growth of the cells) (pancreatic acinar cells [1]; rank among growth factors (FIG. 8A))	proportion of insulin-positive cells (pancreatic acinar cells [1])	effect on induction of aimed cells (cells forming colonies containing insulin-positive cells) (pancreatic acinar cells [2]; EGF 20 ng/ml)	effect on induction of aimed cells (cells forming colonies containing insulin-positive cells) (pancreatic acinar cells [2]; EGF 200 ng/ml)
epidermal growth factor [EGF, epidermal growth factor (R&D Systems), growth factor added to the culture medium]	most effective	most effective	remarkable effect	remarkable effect
hepatocyte growth factor [HGF]	–	this was followed by FGF10 and HGF	–	–

From patent US20070231897A1, “Induction of Insulin Secreting Cell” (KYOTO UNIVERSITY, priority 2004, published 2007)
